Data taken from patent US9765213B2, “Drug carriers comprising amphilphilic block copolymers” (BIOCOMPATIBLES UK LIMITED, priority 2002, dated 2017).
Structures can show the parent of a compound that is named as a salt. Numbered stars: 1 amine (or outer) side, 2 acyl side, 3 side chain; on linkers, the order of the positions; unused ones are H or OH. Bridge positions count the residues as written; N and C are the ends. Square brackets hold non-standard residues; d marks the D form. Peptide text beside a SMILES is read from it. I, II: the chains in the order shown. Actinocin(9to1) = Cc1c2oc3c(C)ccc(C(=O)[*:1])c3nc-2c(C(=O)[*:2])c(N)c1=O; NMeV = CN[C@H](C(=O)O)C(C)C; Sar = CNCC(=O)O

Tests used:
[1] = octanol/water; determined experimentally, literature; cited from earlier work
[2] = Release of solubilised Orange OT dye from micelles by lowered pH (particle size); type: physicochemical
Excerpt: The release of solubilised Orange OT dye from micelles, as a model for drug release, using lowered pH as the stimuli was examined.

[3] = Dipyridamole loading by pH change; type: physicochemical
Procedure: In another example of drug loading, a solution of the drug dipyridamole was used given the intensely coloured nature of the drug allows simple detection. At pH 2 this drug was dissolved to give a fluorescent green-yellow solution. By adjusting the pH to 9-10 the drug was seen to precipitate.

SMILES	LogP (Exp) [1]	also measured
CC[C@]1(O)C[C@@H]2CN(CCc3c([nH]c4ccccc34)[C@@](C(=O)OC)(c3cc4c(cc3OC)N(C)[C@H]3[C@@](O)(C(=O)OC)[C@H](OC(C)=O)[C@]5(CC)C=CCN6CC[C@]43[C@@H]65)C2)C1 [Vinblastine]	1.68	–
CC[C@]1(O)C[C@H]2CN(CCc3c([nH]c4ccccc34)[C@@](C(=O)OC)(c3cc4c(cc3OC)N(C=O)[C@H]3[C@@](O)(C(=O)OC)[C@H](OC(C)=O)[C@]5(CC)C=CCN6CC[C@]43[C@@H]65)C2)C1 [Vincristine Sulfate]	2.14	–
Cc1c2oc3c(C)ccc(C(=O)N[C@@H]4C(=O)N[C@H](C(C)C)C(=O)N5CCC[C@H]5C(=O)N(C)CC(=O)N(C)[C@@H](C(C)C)C(=O)O[C@@H]4C)c3nc-2c(C(=O)N[C@@H]2C(=O)N[C@H](C(C)C)C(=O)N3CCC[C@H]3C(=O)N(C)CC(=O)N(C)[C@@H](C(C)C)C(=O)O[C@@H]2C)c(N)c1=O [Actinomycin] (I: T[dV]P[Sar][NMeV] / II: T[dV]P[Sar][NMeV]; ester I:1-I:C, II:1-II:C; linker I:N-II:N via Actinocin(9to1))	0.997	–
Nc1nc2nc[nH]c2c(=S)[nH]1 [6-Thioguanine]	−0.28	–
O=C1CCc2cc(OCCCCc3nnnn3C3CCCCC3)ccc2N1 [Cilostazol]	2.3	–
O=c1[nH]cc(F)c(=O)[nH]1 [Fluorouracil]	−1	–
COc1cc([C@@H]2c3cc4c(cc3[C@@H](O[C@@H]3O[C@@H]5CO[C@@H](C)O[C@H]5[C@H](O)[C@H]3O)[C@H]3COC(=O)[C@H]23)OCO4)cc(OC)c1O [Etoposide]	0.99	–
C[C@]12CC[C@@H]3c4ccc(O)cc4CC[C@H]3[C@@H]1CC[C@@H]2O [Estradiol]	4.3	–
CC(=O)O[C@H]1C(=O)[C@@]2(C)[C@H]([C@H](OC(=O)c3ccccc3)[C@]3(O)C[C@H](OC(=O)[C@H](O)[C@@H](NC(=O)c4ccccc4)c4ccccc4)C(C)=C1C3(C)C)[C@]1(OC(C)=O)CO[C@@H]1C[C@@H]2O [Taxol]	3.98	–
CC[C@H](C)C(=O)O[C@H]1C[C@@H](C)C=C2C=C[C@H](C)[C@H](CC[C@@H]3C[C@@H](O)CC(=O)O3)[C@H]21 [Lovastatin]	1.7	–
COCc1c(C(C)C)nc(C(C)C)c(/C=C/[C@@H](O)C[C@@H](O)CC(=O)O)c1-c1ccc(F)cc1 [Cerivastatin]	2.05	–
Cc1ccccc1N=Nc1c(O)ccc2ccccc12 [Orange OT]	–	share of the particle population ([2]; pH 4.5, after release from MPC30-DEA60 micelles): 1%; mean particle diameter of released dye aggregates ([2]; released from MPC30-DEA60 micelles, pH reduced to pH 4.5): 113 nm
OCCN(CCO)c1nc(N2CCCCC2)c2nc(N(CCO)CCO)nc(N3CCCCC3)c2n1 [Dipyramidole]	–	solubility behaviour of the drug ([3]; pH 2): dissolved; solubility behaviour of the drug ([3]; pH 9-10): precipitate
CC[C@H](C)C(=O)O[C@H]1C[C@H](O)C=C2C=C[C@H](C)[C@H](CC[C@@H](O)C[C@@H](O)CC(=O)O)[C@H]21 [Pravastatin]	−0.23	–
CC(C)n1c(/C=C/C(O)CC(O)CC(=O)O)c(-c2ccc(F)cc2)c2ccccc21 (centres unmarked) [Fluvastatin]	1.67	–
